The results in this text go back to patent US12611405B2, “Agent that increases the expression of the BCL2-associated agonist of cell death for the treatment of cancer” (LDN Pharma Limited, priority 2017, dated 2026).

Molecules are shown by their SMILES.

What all share (assay type): cell-based
Series [1] deals with BAD expression in HCT116 colon cancer cells. The series can be described thus: Level of expression of BAD after 48 h culture, immunoblotting. As to the method: In order to determine the effect of 6-β-naltrexol or naltrexone on the level of expression of BAD, pAKT, p21, cyclin B1 and CDK1 HCT116 colon cancer cells were seeded onto 6-well plates at a density of 2×10^5 cell/well, and allowed to adhere overnight. Cells were then cultured in the presence of naltrexone or 6-β-naltrexol at concentrations of 10 nM or 10 μM for a further 48 h. Cells were then harvested and processed for measurements of BAD, or pAKT, p21, cyclin B1 and CDK1 using standard immunoblotting techniques.

Series [2] deals with BAD expression in breast cancer cell line MCF-7. The series can be described thus: BAD protein expression by western blotting. As to conditions: MCF-7, different concentrations of 6BN (FIG. 3).
The test system of series [3] is A549 cells. Briefly: Two-phase priming with 6-β-naltrexol then GEM or OXP, cell number and viability by trypan blue counting. As to the method:
(§1) The impact of combining 6-β-naltrexol with other chemotherapy agents was tested by culturing cells according to a treatment schedule that involved two phases of treatment. The first phase involved priming with 10 nM 6-β-naltrexol or 10 μM 6-β-naltrexol for 48 h, before treatment with another drug for a further 48 h. A549 and HCT116 cells were seeded into 6-well plates at a density of 2×10^5 cells/well and left to adhere overnight. Media was removed after 48 h, and cells were rinsed gently with drug-free medium. Fresh culture medium that contained gemcitabine (GEM) or oxaliplatin (OXP) was then added to the cells. The concentrations of the chemotherapy agents used were approximately ¼ IC50, as established previously [Liu W M, Fowler D W, Smith P, Dalgleish A G. Pre-treatment with chemotherapy can enhance the antigenicity and immunogenicity of tumours by promoting adaptive immune responses. Br J Cancer. 2010 Jan. 5; 102(1):115-23. doi: 10.1038/sj.bjc.6605465.]. Cells were then left for a further 48 h before assessment of cell number of viability by cell counting using trypan blue dye as a way of discriminating live and dead cells. Cytostasis was indicated by a reduction in cell number and no associated reduction in cell viability.

The subject of series [4] is HCT116 cells. The description is as above. The protocol:
as §1

For series [5], the system named is MCF-7 cells. Briefly: 6BN given concomitantly with gemcitabine or oxaliplatin, cell number and viability by trypan blue dye exclusion. The note with it: 10 uM 6BN concomitantly with gemcitabine (0.5 uM) or oxaliplatin (0.5 uM), 48 h. As to the method:
The effect of combining 6BN with the chemotherapeutic agents gemcitabine or oxaliplatin was tested by culturing MCF-7 cells with 6BN (10 nM or 10 uM) concomitantly with gemcitabine (0.5 uM) or oxaliplatin (0.5 uM). Cell number and viability was then assessed after 48 h using trypan blue dye exclusion as a means to discriminate live/dead cells.

[6] abbreviates: 6-β-naltrexol priming 48 h in an amount raising BAD by at least 10%, then GEM or OXP at approx. ¼ IC50 for 48 h.

For the compound `Oc1ccc2c3c1OC1[C@H](O)CC[C@@]4(O)[C@@H](C2)N(CC2CC2)CC[C@]314` (stereo partly drawn) [6-β-naltrexol, 17-(Cyclopropylmethyl)-4,5-epoxymorphinan-3,6 beta,14-triol], the “effect on the level of expression of BAD” value in series [1] (10 nM) is given as “negligible effect”. For the same compound, the “increase in the level of expression of BAD” value in series [1] (10 μM) is given as “more than 10%”. The “expression of the pro-apoptotic protein BAD” value in series [2] is “dose dependent increase”. The “cytotoxicity of 6-β-naltrexol alone” value is “absence of any independent increase in cytotoxicity” in series [3] (10 nM or 10 μM 6BN, no chemotherapeutic agent (FIG. 2c)) and “absence of any independent increase in cytotoxicity” in series [4] (10 nM or 10 μM 6BN, no chemotherapeutic agent (FIG. 2d)). For the same compound, the “cytotoxic effect of both chemotherapeutic agents (GEM, OXP) after priming” value in series [3] (setting [6]) and in series [4] (setting [6]) was “increased” throughout. The “effect on cell viability of the combination with chemotherapy” value in series [5] was “greatest effect on cell viability”.
For `O=C1CC[C@@]2(O)[C@H]3Cc4ccc(O)c5c4[C@@]2(CCN3CC2CC2)[C@H]1O5` [naltrexone, reference compound], the “effect on the level of expression of BAD” value in series [1] (10 nM) and in series [1] (10 μM) was “negligible effect” throughout.
